What all share (assay): Post-emergence efficacy of compounds of Formula (I) (B1), glasshouse
Holding throughout (type): in vivo

Assay [1] concerns Amaranthus palmeri (AMAPA). To be noted: Application Rate 500 g/Ha, evaluated after 13 days; for pest or weed control at 500 g/ha: Amaranthus palmeri, post-emergence, 312 h, read-out: Control of AMAPA after post-emergence application (100=total damage to plant; 0=no damage to plant). How it is done:
(§1) Seeds of a variety of test species were sown in standard Iaom-based soil in pots:— Ipomoea hederacea (IPOHE), Euphorbia heterophylla (EPHHL), Chenopodium album (CHEAL), Amaranthus palmeri (AMAPA), Lolium perenne (LOLPE), Digitaria sanguinalis (DIGSA), Eleusine indica (ELEIN), Echinochloa crus-galli (ECHCG), Setaria faberi (SETFA). After cultivation for 14 days (post-emergence) under controlled conditions in a glasshouse (at 24/16° C., day/night; 14 hours light; 65% humidity), the plants were sprayed with an aqueous spray solution derived from the dissolution of the technical active ingredient Formula (I) in a small amount of acetone and a special solvent and emulsifier mixture referred to as IF50 (11.12% Emulsogen EL360 TM+44.44% N-methylpyrrolidone+44.44% Dowanol DPM glycol ether), to create a 50 g/I solution which was then diluted to required concentration using 0.25% or 1% Empicol ESC70 (Sodium lauryl ether sulphate)+1% ammonium sulphate as diluent. The delivery of the aqueous spray solution was via a laboratory track sprayer which delivered the aqueous spray composition at a rate of 200 litres per hectare, using a flat fan nozzle (Teejet 11002VS) and an application volume of 200 litre/ha (at 2 bar).
(§2) The test plants were then grown in a glasshouse under controlled conditions (at 24/16° C., day/night; 14 hours light; 65% humidity) and watered twice daily. After 13 days the test was evaluated (100=total damage to plant; 0=no damage to plant).

Assay [2] concerns Chenopodium album (CHEAL). The settings on record: Application Rate 500 g/Ha, evaluated after 13 days; for pest or weed control at 500 g/ha: Chenopodium album, post-emergence, 312 h, read-out: Control of CHEAL after post-emergence application (100=total damage to plant; 0=no damage to plant). How it is done: as §1, §2
For assay [3], the system named is Digitaria sanguinalis (DIGSA). To be noted: Application Rate 500 g/Ha, evaluated after 13 days; for pest or weed control at 500 g/ha: Digitaria sanguinalis, post-emergence, 312 h, read-out: Control of DIGSA after post-emergence application (100=total damage to plant; 0=no damage to plant). How it is done: as §1, §2
In assay [4] the test system is Echinochloa crus-galli (ECHCG). The settings on record: Application Rate 500 g/Ha, evaluated after 13 days; for pest or weed control at 500 g/ha: Echinochloa crus-galli, post-emergence, 312 h, read-out: Control of ECHCG after post-emergence application (100=total damage to plant; 0=no damage to plant). How it is done:
as §1, §2

The test system of the next assay is Eleusine indica (ELEIN). To be noted: Application Rate 500 g/Ha, evaluated after 13 days; for pest or weed control at 500 g/ha: Eleusine indica, post-emergence, 312 h, read-out: Control of ELEIN after post-emergence application (100=total damage to plant; 0=no damage to plant). How it is done: as §1, §2
The test system of assay [5] is Euphorbia heterophylla (EPHHL). The settings on record: Application Rate 500 g/Ha, evaluated after 13 days; for pest or weed control at 500 g/ha: Euphorbia heterophylla, post-emergence, 312 h, read-out: Control of EPHHL after post-emergence application (100=total damage to plant; 0=no damage to plant). How it is done:
as §1, §2

Assay [6] deals with Ipomoea hederacea (IPOHE). The settings on record: Application Rate 500 g/Ha, evaluated after 13 days; for pest or weed control at 500 g/ha: Ipomoea hederacea, post-emergence, 312 h, read-out: Control of IPOHE after post-emergence application (100=total damage to plant; 0=no damage to plant). On the procedure: as §1, §2
A further assay relates to Lolium perenne (LOLPE). The settings on record: Application Rate 500 g/Ha, evaluated after 13 days; for pest or weed control at 500 g/ha: Lolium perenne, post-emergence, 312 h, read-out: Control of LOLPE after post-emergence application (100=total damage to plant; 0=no damage to plant). How it is done: as §1, §2
In another assay the test system is Setaria faberi (SETFA). The settings on record: Application Rate 500 g/Ha, evaluated after 13 days; for pest or weed control at 500 g/ha: Setaria faberi, post-emergence, 312 h, read-out: Control of SETFA after post-emergence application (100=total damage to plant; 0=no damage to plant). On the procedure:
as §1, §2

From patent US20220095618A1, “HERBICIDAL COMPOSITIONS” (SYNGENTA CROP PROTECTION AG, priority 2019, published 2022) come the findings set out here.

For `O=S(=O)(O)CC[n+]1ccc(-c2cnccn2)cn1` [Compound 1.004], the pest or weed control at 500 g/ha in [1] worked out at 100%; in assay [2], 100%; in assay [3] it was 100%; in assay [4] it was 80%; in the assay on Eleusine indica (ELEIN), 100%; in [5] it was 100%. Moreover, the values for the pest or weed control at 500 g/ha (in assay [6]; with Lolium perenne (LOLPE); in the assay on Setaria faberi (SETFA)) were 60%, 60% and 90%, respectively.

On to `O=C(O)CC[n+]1ccc(-c2cnccn2)cn1.O=C([O-])C(F)(F)F` [Compound 1.005, 3-(4-pyrazin-2-ylpyridazin-1-ium-1-yl)propanoic acid 2,2,2-trifluoroacetate], for which the pest or weed control at 500 g/ha in assay [1] was found to be 100%; in assay [2] it was 100%; in assay [3], 100%; in [4] it was 100%; in the assay with Eleusine indica (ELEIN) it was 100%; in assay [6], 30%. Besides, the “Control of EPHHL after post-emergence application (100=total damage to plant; 0=no damage to plant)” value in assay [5] is 70. Further, the “Control of LOLPE after post-emergence application (100=total damage to plant; 0=no damage to plant)” value in the assay with Lolium perenne (LOLPE) is recorded as 80. Moreover, the “Control of SETFA after post-emergence application (100=total damage to plant; 0=no damage to plant)” value with Setaria faberi (SETFA) was 60.

`O=S(=O)([O-])CC[n+]1ccc(-c2ccnnc2)cn1` [Compound 1.006, 2-(4-pyridazin-4-ylpyridazin-1-ium-1-yl)ethanesulfonate]: the pest or weed control at 500 g/ha was found to be 100% in assay [1]; 100% in assay [2]; 80% in assay [3]; 60% in assay [4]; 100% in the assay on Eleusine indica (ELEIN); 100% in [5]. Also, the pest or weed control at 500 g/ha was found to be 100% in assay [6], 80% with Lolium perenne (LOLPE) and 30% in the assay with Setaria faberi (SETFA).

For the molecule `O=S(=O)([O-])CC[n+]1ccc(-c2ccncc2)cn1` [Compound 1.007], the pest or weed control at 500 g/ha in assay [1] stood at 100%; in [2], 100%; in [3], 100%; in assay [4], 80%; with Eleusine indica (ELEIN), 100%; in assay [5], 40%. The figures for the pest or weed control at 500 g/ha (in assay [6]; in the assay with Lolium perenne (LOLPE); with Setaria faberi (SETFA)) were 30%, 90% and 70%, respectively.

For the molecule `O=C(O)CC[n+]1ccc(-c2ccncn2)cn1` [Compound 1.011], the pest or weed control at 500 g/ha in assay [1] came to 100%; in assay [2] it was 100%; in assay [3], 90%; in [4] it was 90%; in the assay with Eleusine indica (ELEIN), 100%; in assay [5] it was 100%. Further, the pest or weed control at 500 g/ha in assay [6] is 100%; in the assay on Lolium perenne (LOLPE) it was 70%; in the assay on Setaria faberi (SETFA) it was 100%.

As to `O=C(O)CC[n+]1ccc(-c2cnccn2)cn1.[Cl-]` [Compound 1.012, 3-(4-pyrazin-2-ylpyridazin-1-ium-1-yl)propanoic acid chloride], the “Control of AMAPA after post-emergence application (100=total damage to plant; 0=no damage to plant)” value in assay [1] was 100. In assay [2], the “Control of CHEAL after post-emergence application (100=total damage to plant; 0=no damage to plant)” value is 100. Besides, the “Control of DIGSA after post-emergence application (100=total damage to plant; 0=no damage to plant)” value in [3] was 100. Moreover, the “Control of ECHCG after post-emergence application (100=total damage to plant; 0=no damage to plant)” value in assay [4] is given as 90. The “Control of ELEIN after post-emergence application (100=total damage to plant; 0=no damage to plant)” value with Eleusine indica (ELEIN) came to 90. For the same molecule, in assay [5], the “Control of EPHHL after post-emergence application (100=total damage to plant; 0=no damage to plant)” value worked out at 100. Moreover, in assay [6], the “Control of IPOHE after post-emergence application (100=total damage to plant; 0=no damage to plant)” value is 20. Moreover, the “Control of LOLPE after post-emergence application (100=total damage to plant; 0=no damage to plant)” value in the assay on Lolium perenne (LOLPE) worked out at 50. Also, the “Control of SETFA after post-emergence application (100=total damage to plant; 0=no damage to plant)” value in the assay on Setaria faberi (SETFA) is 90.

As to `COC(=O)CC[n+]1ccc(-c2cnccn2)cn1` [Compound 1.013, methyl 3-(4-pyrazin-2-ylpyridazin-1-ium-1-yl)propanoate chloride], the pest or weed control at 500 g/ha in assay [1] was found to be 100%; in assay [2] it was 90%; in [3], 100%; in [4], 80%; in the assay on Eleusine indica (ELEIN), 100%; in [5], 100%. In addition, the pest or weed control at 500 g/ha in assay [6] came to 80%; with Lolium perenne (LOLPE), 70%; in the assay with Setaria faberi (SETFA) it was 100%.

Regarding `O=C(CC[n+]1ccc(-c2ncccn2)cn1)OCc1ccccc1` [Compound 1.018], the pest or weed control at 500 g/ha was 90% in assay [1]; 90% in assay [2]; 100% in [3]; 80% in [4]; 100% with Eleusine indica (ELEIN); 100% in assay [5]. For the same molecule, the pest or weed control at 500 g/ha was 30% in [6], 40% with Lolium perenne (LOLPE) and 100% in the assay with Setaria faberi (SETFA).

On to `O=C(CC[n+]1ccc(-c2ncccn2)cn1)Oc1ccccc1` [Compound 1.020], for which the pest or weed control at 500 g/ha in assay [1] was 100%; in [2], 80%; in assay [3], 100%; in assay [4] it was 90%; with Eleusine indica (ELEIN), 100%; in assay [5], 80%. Further, the results for the pest or weed control at 500 g/ha (in [6]; in the assay on Lolium perenne (LOLPE); with Setaria faberi (SETFA)) were 30%, 80% and 100%, respectively.

In the case of `O=C(O)CC[n+]1ccc(-c2ncccn2)cn1.[Br-]` [Compound 1.021, 3-(4-pyrimidin-2-ylpyridazin-1-ium-1-yl)propanoic acid bromide], the pest or weed control at 500 g/ha in assay [1] stood at 100%; in the assay with Lolium perenne (LOLPE), 70%. Moreover, in assay [2], the “Control of CHEAL after post-emergence application (100=total damage to plant; 0=no damage to plant)” value was 100. The “Control of DIGSA after post-emergence application (100=total damage to plant; 0=no damage to plant)” value in assay [3] turned out to be 100. Besides, the “Control of ECHCG after post-emergence application (100=total damage to plant; 0=no damage to plant)” value in assay [4] is listed as 100. For the same molecule, in the assay on Eleusine indica (ELEIN), the “Control of ELEIN after post-emergence application (100=total damage to plant; 0=no damage to plant)” value is 100. Further, the “Control of EPHHL after post-emergence application (100=total damage to plant; 0=no damage to plant)” value in [5] is reported as 100. The “Control of IPOHE after post-emergence application (100=total damage to plant; 0=no damage to plant)” value in assay [6] came out at 100. Further, in the assay with Setaria faberi (SETFA), the “Control of SETFA after post-emergence application (100=total damage to plant; 0=no damage to plant)” value is given as 100.

Turning to `CC(C)(C[n+]1ccc(-c2ncccn2)cn1)C(=O)O` [Compound 1.022], the pest or weed control at 500 g/ha in assay [1] was 100%; in [2] it was 80%; in assay [3] it was 100%; in assay [4], 90%; in the assay on Eleusine indica (ELEIN), 100%; in [5], 100%. The pest or weed control at 500 g/ha in [6] was 100%; in the assay on Lolium perenne (LOLPE) it was 60%; in the assay with Setaria faberi (SETFA), 100%.

Take `CC(C[n+]1ccc(-c2ncccn2)cn1)C(=O)O` (stereo not drawn) [Compound 1.024]: the pest or weed control at 500 g/ha was 100% in assay [1]; 90% in [2]; 90% in [3]; 100% in [4]; 100% in the assay on Eleusine indica (ELEIN); 100% in assay [5]. In addition, the pest or weed control at 500 g/ha in assay [6] was found to be 40%; in the assay on Lolium perenne (LOLPE), 80%; in the assay with Setaria faberi (SETFA), 100%.
